Laboratory results from US20080249043A1, “Methods and Compositions Involving Protein Kinase C-Delta” (priority 2004, published 2008).
≈ marks a conversion by molar mass, not a printed value. Residues, ends and D or L forms follow the SMILES beside them. *: point of attachment. Cbz = O=C(OCc1ccccc1)*; CH2F = FC*

Tests used:
[1] = test system: U937 cells; assay: TUNEL assay of apoptosis in U937 cells; format: cell-based; conditions: for TUNEL positivity, time course: 50 ng/ml bortezomib
Protocol: […] Cells were harvested and fixed for TUNEL assays. The percentages of the TUNEL positive cells are indicated.
(§1) U937 cells were grown in RPMI with 10% fetal bovine serum and L-glutamine. Bortezomib was from Millennium Pharmaceutical Corp. (Cambridge, Mass.). Rottlerin was from Sigma (St. Louis, Mo.). PKC-δ monoclonal antibody was from BD Transduction Laboratories (San Jose, Calif.). Boc-D(Ome)-FMK (BAF) and Go6976 were from Calbiochem (San Diego, Calif.). The TUNEL assay (terminal deoxynucleotidyltransferase-mediated dUTP-biotin nick end labeling) was from Roche (Switzerland). Subcellular fractionation and western blotting were performed as described (Chen Jet al. Mol Cancer Ther. 2002;1:961-967).

[2] = test system: PKC-δ; assay: Western blotting and subcellular fractionation for PKC-δ in U937 cells; format: cell-based
Protocol: U937 cells were treated with PMA (200 nM) or bortezomib (100 ng/ml) for 2 and 4 hours and cells were harvest for western blotting with antibody against PKC-δ. Same blot was probed with actin antibody as loading controls. […] U937 cells were treated with various concentrations of bortezomib and cells were subjected to subcellular fractionation to isolate mitochondria and cytoplasm. The whole cell lysates and fractions were analyzed with antibody against PKC-δ. […] U937 cells were treated with bortezomib (50 ng/ml) and/or caspase inhibitor BAF (30 μM) for 16 hours. Whole cell lysates were analyzed by western blotting with the PKC-δ antibody. […] Cells were treated with PMA (200 nM) for 6, 9 and 12 hours and subjected to subcellular fractionation. Western blot was probed with the PKC-δ antibody. M: mitochondria; C: cytoplasm.
as §1

[3] = test system: PLS3; assay: PLS3 threonine phosphorylation: Ni-bead pulldown of His-tagged PLS3, Western blot with PT antibody, HeLa cells; format: cell-based; conditions: HeLa cells, AD198 (5 μM) along with Z-VAD or CsA, 2 h
Protocol: Pulldown of His-tagged proteins from transfected HeLa cells—Transfected HeLa cells were washed with ice-cold phosphate-buffered saline (PBS) and incubated in the lysis buffer (50 mM NaH2PO4, 500 mM NaCl, 20 mM imidazole, 1% Triton X-100, 20 mM 2-mercaptoethanol, pH8.0) for 5 min and sonicated briefly on ice. The lysates were centrifuged at 10,000×g for 10 min at 4° C. The supernatant was saved and the protein concentration was measured with the Bio-Rad protein assay (Bio-Rad Laboratories, Hercules, Calif.) and adjusted to same concentrations for each sample. The supernatants were incubated with Ni-beads on a shaker for 2 h at 4° C. Beads were then pelleted at 800×g for 2 min at 4° C. and washed with ice-cold wash buffer (50 mM NaH2PO4, 500 mM NaCl, 20 mM imidazole, 1% Triton X-100, pH8.0) for five times. Beads were resuspended in SDS sample buffer and analyzed by Western blotting.
Western blot analysis—Equal amounts of protein were analyzed by 10% SDS-PAGE and electrotransferred to Immobilon-P membranes (Millipore Corporation, Bedford, Mass.). Monoclonal PKC-δ, PT, and β-actin and polyclonal VDAC antibodies were used at 1:1,000 and polyclonal PLS3 antibody was used at 1:2,000 for immunoblotting. Secondary anti-mouse or anti-rabbit antibodies conjugated with horseradish peroxidase were used at 1:2,000 and incubated with the membrane for 1 h at room temperature. […]

[4] = test system: HeLa cells; assay: Apoptosis by PI staining and flow cytometry (subG1 population) in HeLa cells; format: cell-based; conditions: HeLa cells, 50 μM Z-VAD or 5 μM CsA 30 min, then AD198 16 h
Protocol: Cell culture, transfection and treatment—HeLa cells were cultured in Dulbecco's modified Eagle's medium (DMEM) containing 10% fetal bovine serum, 2 mM L-glutamine and penicillin (100 units/ml)-streptomycin (100 μg/ml) at 37° C. in a humidified 5% CO2 atmosphere. HeLa cells at 90% confluence were transfected with different mammalian expression vectors using Lipofectamin 2000 according to the manufacturer's protocol (Invitrogen Inc., Carlsbad, Calif.). At 24 h or 48 h after transfection, cells were treated with 1:100 dilution of AD198 that was dissolved in dimethyl sulfoxide (DMSO). For down-regulation of PLS3, HeLa cells at 50% confluence were transfected with siRNA against PLS3 or a scrambled control. At 48 h, cells were treated with AD198 for 16 h and harvested for flow cytometry. The whole cell lysate was extracted for analysis with Western blotting.
Analysis of apoptosis and determination of the transmembrane potential in mitochondria—Cell death was quantified by propidium iodide (PI) staining, followed by flow cytometry (Becton-Dickinson). HeLa cells were fixed in 0.5 ml cold 70% ethanol at −20° C. overnight. Cell pellet were resuspended in 300 μl of PBS containing 0.025 mg/ml PI, 0.05% Triton X-100, 0.1 mg/ml RNase A and incubated at room temperature for 30 min. The DNA content was evaluated by FACScan. For mitochondrial potential analysis, HeLa cells were incubated with MitoTracker Green at 37° C. for 20 min. The cells were collected and washed with PBS and analyzed by FACScan.
Cell culture, transfection, selection and treatment—HeLa cells were cultured in Dulbecco's modified Eagle's medium (DMEM) with 10% fetal bovine serum, 2 mM L-glutamine, 100 units/ml penicillin and 100 μg/ml streptomycin at 37° C. HeLa cells at 90% confluence were transfected with different mammalian expression vectors or siRNA using Lipofectamin 2000 according to the manufacturer's protocol (Invitrogen Inc., Carlsbad, Calif.). At 48 h after transfection, cells were incubated with 5 μM AD198 or dimethyl sulfoxide (DMSO) for 4 h or 16 h. After transfection, cells were selected with 1 mg/ml G418 for 2 wk. After corresponding mock-transfected cells were killed by G418, the concentration of G418 was decreased to 0.5 mg/ml and maintained for another 2 wk. The whole cell lysates or subcellular fractions were extracted for Western blotting analysis (Liu et al. (2003)).
Analysis of apoptosis—HeLa cells were harvested and fixed in 70% ethanol at −20° C. overnight. Cells were then washed with PBS and stained with 0.025 mg/ml propidium iodide (PI), 0.05% Triton X-100, 0.1 mg/ml RNase A for 30 min at room temperature. The DNA content was analyzed by FACScan (Becton-Dickinson), and the subG0/G1 population was used to represent apoptosis.

[5] = test system: HeLa cells; assay: Mitochondrial potential by MitoTracker Green and flow cytometry in HeLa cells; format: cell-based; conditions: 50 μM Z-VAD or 5 μM CsA 30 min, then AD198 16 h
Protocol: Cells were incubated with MitoTracker Green at 37° C. for 20 min followed by flow cytometry analysis. The histogram represents the means±standard deviations from three independent experiments.

[6] = monomeric boronic acid; pH range of 2-6.5; cited from earlier work
[7] = U937 cells, 2 and 4 hours, PMA 200 nM, bortezomib 100 ng/ml
[8] = U937 cells, bortezomib 16 hours

**Q.** Which “TUNEL positive cells with addition of rottlerin” value (from here on “TUNEL positive cells”) ([1]; bortezomib 5 ng/ml + rottlerin (10 μM), 16 hours) does the source give for `CC(=O)c1c(O)c(C)c(O)c(Cc2c(O)c3c(c(C(=O)/C=C/c4ccccc4)c2O)OC(C)(C)C=C3)c1O` [rottlerin] here?
**A.** 4.35%

**Q.** What about the “TUNEL positive cells” value ([1]; bortezomib 10 ng/ml + rottlerin (10 μM), 16 hours) of the same molecule?
**A.** 8.55%

**Q.** What about the “TUNEL positive cells” value ([1]; bortezomib 50 ng/ml + rottlerin (10 μM), 16 hours) of the same molecule?
**A.** 33.07%

**Q.** With `Cn1c2ccccc2c2c3c(c4c5ccccc5n(CCC#N)c4c21)CNC3=O` [Go6976] as the molecule, how does the “effect on bortezomib-induced apoptosis (TUNEL)” value ([1]; Go6976 (200 nM) with bortezomib, 16 hours) read?
**A.** could not prevent bortezomib-induced apoptosis

**Q.** With `COC(=O)CC(NC(=O)OC(C)(C)C)C(=O)CF` (stereo not drawn) [BAF, Boc-D(Ome)-FMK] as the molecule, how does the “effect on bortezomib-induced 32 kD PKC-δ band” value ([2]; bortezomib (50 ng/ml) and BAF (30 μM), 16 hours) read?
**A.** disappearance of this 32 kD band

**Q.** For `CC(NC(=O)C(NC(=O)OCc1ccccc1)C(C)C)C(=O)NC(CC(=O)O)C(=O)CF` (stereo not drawn) [Z-VAD] (Cbz-Val-Ala-Asp-CH2F; configuration not given here), which “effect on AD198-induced threonine phosphorylation of PLS3” value [3] is on record?
**A.** not affected

**Q.** What about the “effect on AD198-induced apoptosis” value [4] of the same molecule?
**A.** suppressed

**Q.** And the “effect on AD198-induced mitochondrial permeability transition / loss of mitochondrial potential” value [5]?
**A.** could not block

**Q.** Which PKC-δ protein level [2, 7] does the source give for `CCCCCCCCCCCCCC(=O)O[C@@H]1[C@@H](C)[C@@]2(O)[C@@H](C=C(CO)C[C@]3(O)C(=O)C(C)=C[C@@H]23)[C@@H]2C(C)(C)[C@]12OC(C)=O` [PMA] here?
**A.** down-regulated PKC-δ

**Q.** What about the “PKC-δ localization after subcellular fractionation” value ([2]; U937 cells, PMA (200 nM) 6, 9 and 12 hours) of the same molecule?
**A.** full-length PKC-δ and its degradation products in mitochondria

**Q.** For `CC(C)C[C@H](NC(=O)[C@H](Cc1ccccc1)NC(=O)c1cnccn1)B(O)O` [bortezomib, [(1R)-3-methyl-1-[[(2S)-1-oxo-3-phenyl-2-[(pyrazinylcarbonyl)amino]propyl]amino]butyl] boronic acid], which solubility in water [6] is on record?
**A.** 3300 to 3800 µg/mL

**Q.** What about the “TUNEL positivity, time course” value ([1]; 6 hours) of the same molecule?
**A.** did not become TUNEL positive

**Q.** What about the “TUNEL positivity, time course” value ([1]; 16 h) of the same molecule?
**A.** strongly positive

**Q.** And the IC50 ([1]; Homo sapiens, U-937, U937 cells)?
**A.** 0.01 to 0.05 µg/mL (≈ 0.026 to 0.13 µM)

**Q.** What about the “concentration at which cells became TUNEL positive” value ([1]; U937 cells) of the same molecule?
**A.** 5 ng/mL

**Q.** What about the “apoptosis by TUNEL assays” value ([1]; bortezomib 5 ng/ml, 16 hours) of the same molecule?
**A.** 8.02%

**Q.** And the “apoptosis by TUNEL assays” value ([1]; bortezomib 10 ng/ml, 16 hours)?
**A.** 19.85%

**Q.** And the “apoptosis by TUNEL assays” value ([1]; bortezomib 50 ng/ml, 16 hours)?
**A.** 76.07%

**Q.** And the PKC-δ protein level [2, 7]?
**A.** induced an increase of PKC-δ

**Q.** What about the “32 kD PKC-δ fragment” value [2, 8] of the same molecule?
**A.** new band at 32 kD

**Q.** And the PKC-δ protein level [2, 8]?
**A.** the level of PKC-δ decreased
